Results published in patent US9242958B2, “Substituted pyridazine carboxamide compounds as kinase inhibitor compounds” (Xcovery Holding Company LLC, priority 2010, dated 2016).
Marks after values point to notes of the source that are not given here.

Legend:
[1] = biological target: T1, c-Met (Homo sapiens, UniProt P08581); assay: Kinase binding assay (Met biochemical assay, affinity beads/qPCR)
T1 construct: T7 phage fusion (kinase-tagged T7 phage), or alternatively a DNA tag for qPCR; made in house; host or cells: E. coli BL21-derived host (T7 phage display) or HEK-293 cells
T1 sequence (P08581 25-1390): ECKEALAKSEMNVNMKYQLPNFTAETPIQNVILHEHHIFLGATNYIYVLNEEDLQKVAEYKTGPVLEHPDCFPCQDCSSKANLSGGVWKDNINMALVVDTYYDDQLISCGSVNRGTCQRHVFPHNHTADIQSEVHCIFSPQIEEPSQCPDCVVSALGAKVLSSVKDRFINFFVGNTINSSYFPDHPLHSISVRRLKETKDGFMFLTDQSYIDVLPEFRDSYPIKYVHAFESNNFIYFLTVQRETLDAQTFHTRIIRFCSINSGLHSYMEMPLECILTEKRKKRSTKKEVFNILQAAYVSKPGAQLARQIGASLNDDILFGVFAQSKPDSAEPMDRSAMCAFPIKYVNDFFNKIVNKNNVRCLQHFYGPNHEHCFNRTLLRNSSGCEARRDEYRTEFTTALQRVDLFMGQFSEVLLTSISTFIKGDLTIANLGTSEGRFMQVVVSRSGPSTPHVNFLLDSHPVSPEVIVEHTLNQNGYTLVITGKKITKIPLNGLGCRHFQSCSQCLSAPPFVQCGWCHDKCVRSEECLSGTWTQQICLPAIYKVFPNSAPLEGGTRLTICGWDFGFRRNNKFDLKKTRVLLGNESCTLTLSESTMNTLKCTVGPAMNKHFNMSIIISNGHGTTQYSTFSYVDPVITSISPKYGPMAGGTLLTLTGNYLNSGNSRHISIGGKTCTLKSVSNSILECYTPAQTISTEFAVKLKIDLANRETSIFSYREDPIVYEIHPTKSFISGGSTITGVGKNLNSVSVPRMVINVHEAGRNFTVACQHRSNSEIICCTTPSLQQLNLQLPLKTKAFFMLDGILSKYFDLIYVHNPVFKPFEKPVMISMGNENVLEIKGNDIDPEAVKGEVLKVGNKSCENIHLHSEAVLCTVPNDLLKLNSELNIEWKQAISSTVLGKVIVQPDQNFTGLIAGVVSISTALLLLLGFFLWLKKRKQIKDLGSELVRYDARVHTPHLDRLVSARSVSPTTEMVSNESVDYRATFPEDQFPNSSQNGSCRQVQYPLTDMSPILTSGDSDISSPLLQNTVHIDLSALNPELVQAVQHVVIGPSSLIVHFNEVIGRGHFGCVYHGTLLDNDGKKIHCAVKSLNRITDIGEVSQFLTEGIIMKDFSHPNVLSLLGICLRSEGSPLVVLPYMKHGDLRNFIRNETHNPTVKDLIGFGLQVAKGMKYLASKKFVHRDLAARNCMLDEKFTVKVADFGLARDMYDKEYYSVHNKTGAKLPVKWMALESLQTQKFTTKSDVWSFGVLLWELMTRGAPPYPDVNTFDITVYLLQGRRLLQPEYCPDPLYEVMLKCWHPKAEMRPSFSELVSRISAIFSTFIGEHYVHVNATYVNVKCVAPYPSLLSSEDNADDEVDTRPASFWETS
Description: (§1) Met, ALK Biochemical Assays
(§2) Kinase Assays. […] 23, p. […] 26, p.
(§3) For most assays, kinase-tagged T7 phage strains were grown in parallel in 24-well blocks in an E. coli host derived from the BL21 strain. E. coli were grown to log-phase and infected with T7 phage from a frozen stock (multiplicity of infection ˜0.1) and incubated with shaking at 32° C. until lysis (˜90 minutes). The lysates were centrifuged (6,000×g) and filtered ([…]) to remove cell debris. The remaining kinases were produced in HEK-293 cells and subsequently tagged with DNA for qPCR detection. […] The liganded beads were blocked with excess biotin and washed with blocking buffer (SeaBlock (Pierce), 1% BSA, 0.05% Tween 20, 1 mM DTT) to remove unbound ligand and to reduce non-specific phage binding. […] Test compounds were prepared as 40× stocks in 100% DMSO and directly diluted into the assay. All reactions were performed in polypropylene 384-well plates in a final volume of 0.04 ml. […] The kinase concentration in the eluates was measured by qPCR.

[2] = biological target: T2, ALK (Homo sapiens, UniProt Q9UM73); assay: Kinase binding assay (ALK biochemical assay, affinity beads/qPCR)
T2 construct: T7 phage fusion (kinase-tagged T7 phage), or alternatively a DNA tag for qPCR; made in house; host or cells: E. coli BL21-derived host (T7 phage display) or HEK-293 cells
T2 sequence (Q9UM73 19-1620): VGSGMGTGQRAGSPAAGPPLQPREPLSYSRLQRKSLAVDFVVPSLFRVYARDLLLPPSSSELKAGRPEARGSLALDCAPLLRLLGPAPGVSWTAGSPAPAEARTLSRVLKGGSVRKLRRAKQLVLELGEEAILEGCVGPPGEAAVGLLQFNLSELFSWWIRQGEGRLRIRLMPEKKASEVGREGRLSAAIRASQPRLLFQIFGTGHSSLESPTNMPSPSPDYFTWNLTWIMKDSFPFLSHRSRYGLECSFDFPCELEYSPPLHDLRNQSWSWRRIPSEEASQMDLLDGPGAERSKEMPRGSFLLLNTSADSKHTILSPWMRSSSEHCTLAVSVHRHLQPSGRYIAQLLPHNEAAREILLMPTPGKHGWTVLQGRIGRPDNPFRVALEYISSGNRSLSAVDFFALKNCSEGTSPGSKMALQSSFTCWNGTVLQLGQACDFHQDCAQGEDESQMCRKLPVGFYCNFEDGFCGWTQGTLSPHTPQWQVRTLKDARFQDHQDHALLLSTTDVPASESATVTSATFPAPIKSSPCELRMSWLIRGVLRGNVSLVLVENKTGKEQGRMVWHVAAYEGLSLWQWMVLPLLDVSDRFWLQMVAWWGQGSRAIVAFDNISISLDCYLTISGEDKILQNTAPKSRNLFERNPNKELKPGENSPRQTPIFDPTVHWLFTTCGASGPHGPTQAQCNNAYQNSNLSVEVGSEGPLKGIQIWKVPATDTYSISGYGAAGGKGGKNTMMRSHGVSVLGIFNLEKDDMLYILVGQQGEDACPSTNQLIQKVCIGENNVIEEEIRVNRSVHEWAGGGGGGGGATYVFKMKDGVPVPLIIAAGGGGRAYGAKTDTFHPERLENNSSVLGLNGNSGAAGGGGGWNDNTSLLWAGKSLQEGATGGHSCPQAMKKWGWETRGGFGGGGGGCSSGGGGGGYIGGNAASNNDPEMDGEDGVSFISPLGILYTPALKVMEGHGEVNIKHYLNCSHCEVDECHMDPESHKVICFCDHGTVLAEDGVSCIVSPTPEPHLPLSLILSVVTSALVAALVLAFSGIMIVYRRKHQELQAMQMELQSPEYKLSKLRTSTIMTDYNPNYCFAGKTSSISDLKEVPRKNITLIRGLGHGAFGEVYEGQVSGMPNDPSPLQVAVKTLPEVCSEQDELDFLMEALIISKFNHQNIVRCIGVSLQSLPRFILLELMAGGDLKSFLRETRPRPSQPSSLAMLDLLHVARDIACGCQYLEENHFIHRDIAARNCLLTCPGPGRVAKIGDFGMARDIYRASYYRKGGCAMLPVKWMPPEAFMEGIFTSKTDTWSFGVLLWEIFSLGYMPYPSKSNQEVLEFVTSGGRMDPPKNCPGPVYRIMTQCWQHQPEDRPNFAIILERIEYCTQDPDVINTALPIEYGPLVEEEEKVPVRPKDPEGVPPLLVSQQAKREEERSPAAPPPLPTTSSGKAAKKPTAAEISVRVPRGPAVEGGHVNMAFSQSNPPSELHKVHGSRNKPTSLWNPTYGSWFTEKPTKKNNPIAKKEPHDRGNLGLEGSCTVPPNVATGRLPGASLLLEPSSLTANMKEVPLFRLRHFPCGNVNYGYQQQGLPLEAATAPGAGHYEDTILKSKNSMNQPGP
Description: as §1, §2, §3

[3] = tested on: U-87 MG xenograft tumor; assay: In vivo anti-tumor efficacy against U-87MG tumor xenograft model; design: species or system Balb/c nude mice
Description: In Vivo Anti-Tumor Efficacy of Compound 1 of EXAMPLE 1 Against U-87MG Tumor Xenograft Model
Balb/c nude mice (6 weeks old, male) were purchased from Shanghai Slac Laboratory Animal Co. Ltd (Shanghai, China). All mice were maintained in a pathogen-free facility for ˜2 weeks before implantation. They were housed in plastic cages (4˜6 mice/cage) containing corn cob and maintained in a pathogen-free facility (20˜25° C., 30˜70% humidity) with a 12-h light:dark cycle.
U-87 MG xenograft model was established by implanting athymic Balb/c nude mice s.c in the right flank with U-87 MG cells, 3.6×10^6/mouse (120 ul). Tumors were allowed to reach 120˜380 mm^3 in size.
Tumor volumes were measured twice a week with caliper. Tumor volumes were calculated by the formula <Tumor volume=length×width^2/2>.
Percentage of tumor growth inhibition (GI) after initiation of treatment was calculated by the formula: GI=100×{1−[(tumor volumefinal−tumor volumeinitial for the compound-treated group)/(tumor volumefinal−tumor volumeinitial for the vehicle-treated group)]} Relative tumor volume is defined as the ratio of the volume at a given time and the volume at the start of treatment. The relative tumor volume (RTV) was calculated by the formula: RTV=100×TVT/TV0

[4] = 25 mg/kg ig BID, d28 post implantation
[5] = 25 mg/kg ig BID, d31 post implantation
[6] = 50 mg/kg ig BID, d28 post implantation
[7] = 50 mg/kg ig BID, d31 post implantation

COCCn1cc(NC(=O)c2cc(OC(C)c3c(Cl)ccc(F)c3Cl)c(N)nn2)ccc1=O (racemic) [Example 6, {6-amino-5-[(2,6-dichloro-3-fluorophenyl)ethoxy]pyridazin-3-yl}-N-[1-(2-methoxyethyl)-6-oxo-1,6-dihydro-pyridin-3-yl]carboxamide]
IC50 [1]: < 5 nM | IC50 [2]: > 10 nM

C[C@@H](Oc1cc(C(=O)Nc2ccc(C(=O)N3CCN(C)CC3)cc2)nnc1N)c1c(Cl)ccc(F)c1Cl [reference compound]
IC50 [1]: < 5 nM | IC50 [2]: < 5 nM

CC(Oc1cc(C(=O)Nc2ccc(=O)[nH]c2)nnc1N)c1c(Cl)ccc(F)c1Cl (racemic) [Example 5, {6-amino-5-[(2,6-dichloro-3-fluorophenyl)ethoxy]pyridazin-3-yl}-N-(6-oxo-1,6-dihydro-pyridin-3-yl)carboxamide]
IC50 [1]: < 5 nM | IC50 [2]: > 10 nM

C[C@@H](Oc1cc(C(=O)Nc2ccc(=O)n(C)c2)nnc1N)c1c(Cl)ccc(F)c1Cl [Example 1, {5-[(1R)-1-(2,6-dichloro-3-fluorophenyl)ethoxy]-6-aminopyridazin-3-yl}-N-(1-methyl-6-oxo-1,6-dihydro-pyridin-3-yl)carboxamide]
IC50 [1]: < 5 nM | IC50 [2]: > 10 nM | tumor volume (mean ± S.E) ([3]; 25 mg/kg ig BID, d24 post implantation (start of treatment)): 230.4 ± 23.0 mm^3 | tumor growth inhibition GI [3, 4]: 62.14% | tumor volume (mean ± S.E) [3, 4]: 365.7 ± 29.3** mm^3 | tumor growth inhibition GI [3, 5]: 77.04% | tumor volume (mean ± S.E) [3, 5]: 453.7 ± 19.7** mm^3 | tumor volume (mean ± S.E) ([3]; 25 mg/kg ig BID, d35 post implantation): 627.7 ± 33.9** mm^3 | tumor growth inhibition GI ([3]; 25 mg/kg ig BID, d35 post implantation (after 11 days of treatment)): 65.95% | tumor volume (mean ± S.E) ([3]; 50 mg/kg ig BID, d24 post implantation (start of treatment)): 230.2 ± 24.5 mm^3 | tumor growth inhibition GI [3, 6]: 78.82% | tumor volume (mean ± S.E) [3, 6]: 305.9 ± 22.0** mm^3 | tumor growth inhibition GI [3, 7]: 85.52% | tumor volume (mean ± S.E) [3, 7]: 337.4 ± 27.8** mm^3 | tumor volume (mean ± S.E) ([3]; 50 mg/kg ig BID, d35 post implantation): 371.5 ± 34.4** mm^3 | tumor growth inhibition GI ([3]; 50 mg/kg ig BID, d35 post implantation (after 11 days of treatment)): 88.71%

CC(Oc1cc(C(=O)NC2CCC(=O)N(C)C2)nnc1N)c1c(Cl)ccc(F)c1Cl (centres unmarked) [Example 4]
IC50 [1]: > 100 nM | IC50 [2]: > 100 nM

CCn1cc(NC(=O)c2cc(OC(C)c3c(Cl)ccc(F)c3Cl)c(N)nn2)ccc1=O (racemic) [Example 7, {6-amino-5-[(2,6-dichloro-3-fluorophenyl)ethoxy]pyridazin-3-yl}-N-(1-ethyl-6-oxo-1,6-dihydro-pyridin-3-yl)carboxamide]
IC50 [1]: < 5 nM | IC50 [2]: > 10 nM
